Key:
human TRPA1 = human TRPA1 (Homo sapiens, UniProt O75762); assay: Ca2+ influx (Calcium 6 fluorescence) in human TRPA1 expressing HEK-293T cells; format: cell-based
Protocol: (§1) HEK-293T cells were cultured in DMEM (Thermofisher Scientific, Waltham, Mass.) and supplemented with 10% fetal bovine serum (FBS) (Thermofisher Scientific), penicillin (100 units/mL) and streptomycin (0.1 mg/mL). Cells were plated on 100 mm tissue culture plates coated with poly-D-lysine (Sigma Aldrich, Saint Louis, Mo.) and grown to ˜60% confluence. The cells were transiently transfected for 16-24 hours with either human or mouse orthologs of TRPA1 using Fugene 6 transfection reagents and Opti-MEM (Thermofisher Scientific) according to the manufacturer's protocol. Subsequently, cells were trypsinized, re-suspended and re-plated onto poly-D-lysine coated 96-well plates (Krystal black walled plates, Genesee Scientific) at 5×10^5 cells/mL (100 μL/well) and allowed to grow for another 16-20 hrs prior to the experiments. Cells were maintained as monolayers in a 5% CO2 incubator at 37° C.
(§2) Measurements of changes in intracellular Ca^2+ concentrations ([Ca^2+]i) were performed as described previously (Caceres et al., 2017). In brief, cells in 96-well plates were loaded with Calcium 6, a no-wash fluorescent indicator, for 1.5 hrs (Molecular Devices, San Jose, Calif.) and then transferred to a FlexStation III benchtop scanning fluorometer chamber (Molecular Devices). Fluorescence measurements in the FlexStation were performed at 37° C. (Ex:485 nm, Em: 525 nm at every 1.8 s). After recording baseline fluorescence, agonists (indole, IAld, cinnamaldehyde) were added and fluorescence was monitored for a total of 60 s. […] The change in fluorescence was measured as Fmax-F0, where Fmax is the maximum fluorescence and F0 is the baseline fluorescence measured in each well.

mouse duodenum = assay: Amperometric measurement of 5-HT secretion, mouse small intestine; details: 10 mM Indole
Description: These experiments using C57BL/6J mice were approved by the Flinders University Animal Welfare Committee (number 965-19) and human ileum tissue was collected from resected small and large intestine from patients that gave written informed consent under the approval of the Southern Adelaide Clinical Human Research Ethics Committee (number 50.07) as previous (Sun et al., 2019a). Mice were euthanized at 8 to 12 weeks by isoflurane overdose followed by cervical dislocation. The duodenum was removed and placed in Krebs solution oxygenated with 95% O2, 5% CO2. A midline incision was made along the duodenum to create a flat sheet, the section was pinned with the mucosal side up in an organ bath lined with Sylgard and containing oxygenated Krebs solution. Serotonin release was measured using amperometry. A carbon-fibre electrode (5-μm diameter, ProCFE; Dagan Corporation, Minneapolis, Minn.), was lowered above the mucosa and 400 mV potential was applied to the electrode causing oxidation of serotonin (Zelkas et al., 2015). […] The change in amplitude due to serotonin oxidation was recorded using an EPC-10 amplifier and Pulse software (HEKA Electronic, Lambrecht/Pfalz, Germany), and samples at 10 kHz and low-pass filtered at 1 kHz. Data was assessed as peak current during each treatment. Data was analyzed comparing all groups using one-way ANOVA with Tukey's post-hoc test. […]

vagal sensory neurons = assay: In vivo calcium imaging of vagal sensory ganglia after microgavage; design: species or system zebrafish
Protocol: For delivering bacterial or chemicals specifically to the intestine, the established microgavage technique (Cocchiaro and Rawls, 2013) was adopted. Zebrafish were anesthetized with 1 mg/mL α-Bungarotoxin (α-BTX) and the gavage procedure was performed as previously described using microinjection station (Cocchiaro and Rawls, 2013). For bacteria gavage experiments, 1 ml of overnight bacterial culture was harvested, pelleted, washed with PBS and resuspended in 100 ul PBS.˜8 nl was then delivered into the zebrafish intestine using microgavage. The gavaged zebrafish was then transferred into egg water and mounted in 1% LMA for imaging. For chemical gavage experiments, ˜8 nl of AITC (100 mM), indole (1 mM) and IAld (1 mM) was gavaged into the intestine.
Tg(neurod1:Gcamp6f); Tg(neurod1:TagRFP) zebrafish were used to record vagal sensory ganglia calcium activity in vivo. Zebrafish were anesthetized with 1 mg/mL α-Bungarotoxin (α-BTX) and gavaged with chemical compounds or bacteria as described (Naumann et al., 2016). Zebrafish larvae were mounted in 1% LMA and imaged under a Zeiss 780 upright confocal microscope. Z-stack images of the entire vagal ganglia were collected as serial images at 10 mins/frame and processed in FIJI. Individual vagal sensory neurons were identified and the Gcamp6f to TagRFP fluorescence ratios of individual vagal sensory neurons were calculated.

mouse TRPA1 = biological target: T1, mouse TRPA1 (Mus musculus, UniProt Q8BLA8); assay: Ca2+ influx (Calcium 6 fluorescence) in mouse Trpa1-expressing HEK-293T cells; format: cell-based
T1 construct: expressed in transfected cells; host or cells: HEK-293T
Protocol: as §1, §2

intestinal motility = assay: Zebrafish intestinal motility (PIV-Lab velocity analysis); format: in vivo; details: indole stimulation
Protocol: For EEC Trpa1 activation using the Optovin platform, zebrafish larvae were treated with 10 μM Optovin overnight. Following Optovin treatment, unanesthetized zebrafish were mounted in 1% LMA and imaged under a 780 upright Zeiss confocal microscope using 20× water objective lenses. For all the experiments, the mid-intestine region was imaged (FIG. 10D). The intestinal epithelium was selected as the region of interest (ROI) (FIG. 10A). Serial images were obtained at 1 s/frame. A 405 nm pulse of light was applied to the ROI at 1 pulse/10 s. For some experiments (FIG. 7D-F, FIG. 10B-G), the images were obtained at 10 s/frame.
The zebrafish intestinal motility is quantified through recorded image series of zebrafish intestine using the method similar as previously described (Ganz et al., 2018). Intestinal p velocity and v velocity were used to estimate intestinal motility in zebrafish as previously described using the PIV-Lab MATLAB app (Ganz et al., 2018). A positive value of the μ velocity indicates an anterograde intestinal movement and a negative value of the μ velocity indicates a retrograde intestinal movement. The time-course p velocity number is plotted as heatmaps. When calculating the mean velocity, only the mean velocity magnitude was calculated, which therefore doesn't account for the movement direction. The MTrackJ FIJI plugin was used to quantify the mean velocity magnitude (Meijering et al., 2012).

human TRPA1, sequence (O75762 whole entry): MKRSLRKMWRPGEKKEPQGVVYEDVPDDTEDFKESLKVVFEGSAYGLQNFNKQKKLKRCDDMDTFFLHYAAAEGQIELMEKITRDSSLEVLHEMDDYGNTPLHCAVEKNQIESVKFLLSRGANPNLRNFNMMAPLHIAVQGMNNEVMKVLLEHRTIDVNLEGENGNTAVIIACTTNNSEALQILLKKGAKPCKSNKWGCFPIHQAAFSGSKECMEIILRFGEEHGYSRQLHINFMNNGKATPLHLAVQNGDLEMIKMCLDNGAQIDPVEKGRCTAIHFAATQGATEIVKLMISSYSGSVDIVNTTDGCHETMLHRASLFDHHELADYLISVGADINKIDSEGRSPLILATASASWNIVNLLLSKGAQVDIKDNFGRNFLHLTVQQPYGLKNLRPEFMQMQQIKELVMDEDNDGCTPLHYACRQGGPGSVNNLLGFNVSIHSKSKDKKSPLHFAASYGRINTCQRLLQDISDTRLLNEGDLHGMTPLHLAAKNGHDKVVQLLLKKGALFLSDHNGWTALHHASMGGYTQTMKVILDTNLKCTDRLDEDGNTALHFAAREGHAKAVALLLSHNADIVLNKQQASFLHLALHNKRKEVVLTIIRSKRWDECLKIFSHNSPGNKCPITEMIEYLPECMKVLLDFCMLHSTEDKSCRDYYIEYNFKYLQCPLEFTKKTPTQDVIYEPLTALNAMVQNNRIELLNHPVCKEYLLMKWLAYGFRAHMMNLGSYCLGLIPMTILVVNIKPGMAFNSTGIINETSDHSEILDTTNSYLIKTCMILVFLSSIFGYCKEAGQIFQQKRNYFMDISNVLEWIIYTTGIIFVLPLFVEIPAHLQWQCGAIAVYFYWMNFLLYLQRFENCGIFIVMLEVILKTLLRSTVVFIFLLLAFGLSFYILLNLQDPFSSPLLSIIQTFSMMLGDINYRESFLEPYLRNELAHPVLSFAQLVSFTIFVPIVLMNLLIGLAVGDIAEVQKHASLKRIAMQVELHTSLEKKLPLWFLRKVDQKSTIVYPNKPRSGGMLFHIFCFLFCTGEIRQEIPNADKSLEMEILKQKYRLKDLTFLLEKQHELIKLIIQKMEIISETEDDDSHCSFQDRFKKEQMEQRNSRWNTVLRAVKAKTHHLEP
T1 sequence (Q8BLA8 whole entry): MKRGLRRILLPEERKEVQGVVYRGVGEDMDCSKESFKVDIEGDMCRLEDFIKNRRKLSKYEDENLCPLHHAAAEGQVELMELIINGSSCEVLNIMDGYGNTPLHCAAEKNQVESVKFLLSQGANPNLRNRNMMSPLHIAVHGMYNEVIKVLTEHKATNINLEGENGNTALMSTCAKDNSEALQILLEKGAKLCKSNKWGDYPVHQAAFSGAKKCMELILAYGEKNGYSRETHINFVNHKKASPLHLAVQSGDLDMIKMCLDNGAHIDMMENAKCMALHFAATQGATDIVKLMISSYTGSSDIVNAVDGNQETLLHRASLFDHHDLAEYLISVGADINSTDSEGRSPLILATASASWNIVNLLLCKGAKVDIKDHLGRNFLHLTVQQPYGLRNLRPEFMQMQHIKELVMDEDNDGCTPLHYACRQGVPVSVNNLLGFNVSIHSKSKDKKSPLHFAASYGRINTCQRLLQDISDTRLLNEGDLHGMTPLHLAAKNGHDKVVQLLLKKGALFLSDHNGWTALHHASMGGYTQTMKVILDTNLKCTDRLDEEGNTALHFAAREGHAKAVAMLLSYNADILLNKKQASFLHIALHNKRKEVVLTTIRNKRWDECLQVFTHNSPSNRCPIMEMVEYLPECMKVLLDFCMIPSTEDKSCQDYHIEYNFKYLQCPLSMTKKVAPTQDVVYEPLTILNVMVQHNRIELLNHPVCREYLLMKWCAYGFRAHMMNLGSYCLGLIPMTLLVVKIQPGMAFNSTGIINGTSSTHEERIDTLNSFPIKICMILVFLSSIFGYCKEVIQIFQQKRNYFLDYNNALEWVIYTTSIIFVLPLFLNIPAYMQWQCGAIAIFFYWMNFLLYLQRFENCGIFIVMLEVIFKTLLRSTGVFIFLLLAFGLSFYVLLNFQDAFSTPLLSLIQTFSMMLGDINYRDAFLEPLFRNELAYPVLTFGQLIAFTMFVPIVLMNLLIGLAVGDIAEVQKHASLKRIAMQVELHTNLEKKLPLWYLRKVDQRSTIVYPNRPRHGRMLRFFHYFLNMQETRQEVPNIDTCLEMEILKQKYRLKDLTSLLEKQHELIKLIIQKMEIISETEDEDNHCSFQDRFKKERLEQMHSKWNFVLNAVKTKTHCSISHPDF

`c1ccc2[nH]ccc2c1` [Indole] was tested, and the “Activation of human TRPA1 receptor transfected into HEK cells” value (human TRPA1) was “activated”, the EC50 (human TRPA1) was 88.7 µM and the TRPA1 agonist efficacy (human TRPA1; efficiency comparable to cinnamaldehyde (CAD)) was “full TRPA1 agonist activity”. The “5-HT secretion in mouse duodenum” value (mouse duodenum) was “significant increase”, the “Vagal sensory neuron activation in larvae lacking EECs” value (vagal sensory neurons; EEC-ablated zebrafish, enteric indole) was “abrogated” and the “Gcamp6f fluorescence in a subset of vagal sensory neurons” value (vagal sensory neurons; WT, enteric microgavage ~8 nl, AITC 100 mM, indole 1 mM, IAld 1 mM) was “increased”. The EC50 (mouse TRPA1) was 131 µM, the “Activation of mouse Trpa1” value (mouse TRPA1; compared with human TRPA1) was “activated mouse Trpa1, but in a less potent manner” and the “Intestinal motility on stimulation of zebrafish larvae” value (intestinal motility) was “increases intestinal motility”.
